Consider three molecules from US12616203B2, “Use of 3-isoxazolidinones compounds as selective herbicides” (FMC Corporation, priority 2014, dated 2026).

One data set has as its system Sorghum. The data set is described as follows: Ex46 PRE sorghum injury 7, 14, 21, 28 DAT. The note with it: rate in the words. The protocol: Treatments were applied to sorghum at the time of planting using Pennington soil. Each treatment was replicated four times. Soil was watered before and after application for herbicide activation. Plants were watered and fertilized routinely. […] Visual percent crop injury was recorded at 7, 14, 21, and 28 days after treatment using a scale of 0 (no injury) to 100 (complete plant death).

The next data set concerns weeds; Wheat and Barley. The data set is described as follows: Ex41 POST greenhouse. It counts as in vivo. The note with it: rate in the words. The protocol: (§1) Treatments were applied to wheat and barley crops.
(§2) Nonionic surfactant was added at 0.5% v/v in all treatments. Treatments were applied to wheat (5.5″), barley (5″), wild oat (5.5″), common chickweed (2″), wild buckwheat (3″), and common lambsquarters (2″). All plant species were direct seeded into 3″ plastic pots using metro-mix as growth media and pots were watered well before application and watered 24 h after application. Plants were watered and fertilized routinely after treatment application. Each treatment was replicated four times.

Another data set relates to wheat. Type of data set: in vivo. The conditions noted are these: 14 DAT, POST. The protocol: as §1, §2
The test system of the next data set is Barley. It counts as in vivo. The conditions noted are these: 14 DAT, POST. The protocol: as §1, §2
The test system of data set [1] is sweet corn, yellow corn, and sorghum. The conditions noted are these: PRE; crop and rate in the words.
Excerpt: Treatments were also applied ot sweet corn, yellow corn, and sorghum.
Treatments were applied before the emergence of Jimsonweed, velvetleaf, hairy beggarticks, common cocklebur, barnyardgrass, sweet corn, yellow corn, and sorghum. Plant species were planted in fiber flats (6″×10″) containing Pennington soil and flats were watered well before application and watered lightly after application. Flats were watered and fertilized routinely after treatment application.
Another data set has as its system weeds; Sugarcane (CTC20). The data set is described as follows: Ex23 PRE greenhouse. The note with it: 28 DAT, weed and rate in the words. The protocol: (Ipomoea spp). The tested crop in this study was Sugarcane (CTC20).
Sugarcane was direct seeded into 6″ plastic pots using 3-4″ sugarcane setts, oriented bud up, with bud leaf shield removed. 2,4 DC and sulfentrazone were applied alone or combined as tank-mix at each rate mentioned below. […] Treatments were replicated 3 times. […] Thereafter flats were watered and fertilized routinely. […] Visual percent sugarcane injury was recorded at 21 and 28 DAT, using a scale of 0 (no injury, observed as bleaching, stunting or necrosis) to 100 (complete plant death).

For the next data set, the system named is velvetleaf (VL). The data set is described as follows: Ex5 PRE greenhouse, % control. Type of data set: in vivo, Abutilon theophrasti. The conditions noted are these: 28 DAT, g ai/ha by row: r10-26 2,4-DC 50/100/200 (3 rows each) + mesotrione 25/50/100 (cycling). The protocol: (§3) Test compositions containing 2,4-DC Example 1C and mesotrione (Callisto® Herbicide, 40% active ingredient, Syngenta) and mixtures of 2-(2,4-dichlorophenyl)methyl-4,4-dimethyl-3-isoxazolidinone and mesotrione, were diluted with water to provide the appropriate test rate concentration.
(§4) The test weeds were barnyardgrass (BG) (Echinochloa crus-galli), jimsonweed (PA) (Datura stramonium), velvetleaf (VL) (Abutilon theophrasti), common cockelbur (CC) (Xanthium strumarium) and hairy beggarticks (HB) (Bidens pilosa). Crops included in the evaluation were field corn and sorghum.
(§5) For pre-emergence testing, four disposable fiber flats (6″ by 10″) for each rate of application of each herbicide solution were filled with top soil, to which seeds of each species were planted in furrows made by a template pressed on the top of the soil. The furrows with seeds were covered with soil and were watered well before application of the test compounds. Flats designated for treatment were placed in a spray chamber having a static platform and a movable sprayer and height of the spray nozzle was 10.5 inches above the soil level. Once the sprayer was calibrated using water for spray volume of 30 gallons per acre, flats were sprayed with sprayer at a speed to receive a coverage equivalent of 30 gallons per acre.
(§6) The application rates are those shown in Table 4 below for the individual herbicidal solutions and the herbicide compositions of the present invention. The pre-emergence flats were immediately placed in the greenhouse and watered lightly after treatment. Thereafter they were regularly watered and fertilized for the duration of the test. The control of weeds and injury to crops was evaluated in each experimental test at 28 days after treatment (DAT). […] Percent control was determined by a method similar to the 0 to 100 rating system disclosed in “Research Methods in Weed Science,” 2nd ed., B. Truelove, Ed.; Southern Weed Science Society; Auburn University, Auburn, Ala., 1977.

A further data set concerns barnyardgrass (BG). As to the kind of experiment: Ex5 PRE greenhouse, % control. It counts as in vivo, Echinochloa crus-galli. The conditions noted are these: 28 DAT, g ai/ha by row: r10-26 2,4-DC 50/100/200 (3 rows each) + mesotrione 25/50/100 (cycling). The protocol: as §3, §4, §5, §6
Data set [2] deals with weeds; sweet corn, yellow corn, and sorghum. As to the kind of experiment: Ex31 PRE greenhouse. Type of data set: in vivo. The note with it: weed and rate in the words. From the text: Flats were watered and fertilized routinely after treatment application.
Data set [3] has as its system weeds; Sugarcane (var. CTC 20). As to the kind of experiment: Ex17 PRE greenhouse. It counts as in vivo. The conditions noted are these: weed and rate in the words. The protocol: In this example a study was conducted to determine weed efficacy and sugarcane injury when 2,4 DC or isoxaflutole are applied either alone or tank-mix as preemergence against the weeds: Ivyleaf morningglory (Ipomoea hederacea, IPOHE), hairy beggartickss (Bidens pilosa, BIDPI), yellow nutsedge (Cyperus esculentus, CYPES), large crabgrass (Digitaria sanguinalis, DIGSA), and redroot pigweed (Amaranthus retroflexus, AMARE). The crop tested in this study was Sugarcane (var. CTC 20).
To determine weed efficacy and sugarcane selectivity, 2,4 DC (SC 36%) and isoxaflutole (Balance Flexx®, 20%) were applied PRE either alone or as tank-mix partners at rates mentioned below. 2,4 DC was applied at 500, 750, and 1000 g ai/ha while isoxaflutole was applied at 80, 100, and 120 g ai/ha. […] Treatments were applied PRE to sugarcane (var. CTC 20), ivyleaf morningglory, hairy beggarticks, yellow nutsedge, large crabgrass, and redroot pigweed. Weed species were planted in fiber flats (6″×10″) containing Pennington soil. Soil was watered before application and watered lightly after application. Flats were watered and fertilized routinely after treatment application.

The next data set deals with jimsonweed. As to the kind of experiment: Ex5 PRE greenhouse, % control. Type of data set: in vivo, Datura stramonium. The note with it: 28 DAT, g ai/ha by row: r10-26 2,4-DC 50/100/200 (3 rows each) + mesotrione 25/50/100 (cycling). The protocol: as §3, §4, §5, §6
Where [4] appears, read: thifensulfuron-methyl 50 g ai/ha.
The mark [5] stands for this setting: thifensulfuron-methyl 75 g ai/ha.
Setting [6] is: thifensulfuron-methyl 100 g ai/ha.
The mark [7] stands for this setting: r28-30 2,4-DC 50/100/200, r31-33 mesotrione 25/50/100, 25 g ai/ha.
The mark [8] stands for this setting: r28-30 2,4-DC 50/100/200, r31-33 mesotrione 25/50/100, 50 g ai/ha.
The mark [9] stands for this setting: r28-30 2,4-DC 50/100/200, r31-33 mesotrione 25/50/100, 100 g ai/ha.

Read-outs that look alike come from different tables or passages of the source.

For the molecule `CC1(C)CON(Cc2cc(Cl)ccc2Cl)C1=O` [2,5-DC, 2-(2,5-dichlorophenyl)methyl-4,4-dimethyl-3-isoxazolidinone], in the data set on Sorghum, the “sorghum safety in words” value is on record as “safe on sorghum at rates ranging from 31 to 125 g ai/ha irrespective of rating timings”.
For the molecule `COC(=O)c1sccc1S(=O)(=O)NC(=O)Nc1nc(C)nc(OC)n1` [Thifensulfuron-methyl, thifensulfuron-methyl, reference compound], in the data set on weeds; Wheat and Barley, the “weed control / crop safety in words” value was “alone controlled all weeds except wild oat, and was safe on both crops”. Also, the “% crop injury for Thifensulfuron-M alone” value in the data set with wheat (setting [4]) turned out to be 0%; in the data set with wheat (setting [5]) it was 0%; in the data set on wheat (setting [6]), 1%; in the data set with Barley (setting [4]), 2%; in the data set with Barley (setting [5]), 2%; with Barley (setting [6]), 2%.
For `CS(=O)(=O)c1ccc(C(=O)C2C(=O)CCCC2=O)c([N+](=O)[O-])c1` [mesotrione], the “crop safety in words” value in data set [1] is “alone was safe on sweet corn and yellow corn at all three rates; safe on sorghum at 25 and 50 g”. The “weed control in words” value with weeds; Sugarcane (CTC20) is “at 105 g controlled all weeds except morningglory”; in data set [2], “alone gave control of velvetleaf and Jimsonweed at medium or highest rate while it controlled cocklebur and hairy beggarstick at the highest rate only”; in data set [3], “at 105 g controlled all weeds except ivyleaf morningglory”. The “% Control VL” value is given as 73% in the data set with velvetleaf (VL) (setting [7]), 87% in the data set on velvetleaf (VL) (setting [8]) and 100% in the data set with velvetleaf (VL) (setting [9]). In addition, the “% Control BG” value is 48% in the data set on barnyardgrass (BG) (setting [7]), 61% with barnyardgrass (BG) (setting [8]) and 73% in the data set with barnyardgrass (BG) (setting [9]). The results for the “% Control JW” value in the data set on jimsonweed (setting [7]), with jimsonweed (setting [8]) and with jimsonweed (setting [9]) were 68%, 90% and 93%, respectively.
